Patent US20240075004A1, “VERY-LONG-CHAIN POLYUNSATURATED FATTY ACIDS, ELOVANOID HYDROXYLATED DERIVATIVES, AND METHODS OF USE” (The Board of Supervisors of Louisiana State University and …, priority 2020, published 2024)

Key:
[1] = tested on: HNEpC; experiment: HNEpC challenged with HDM: SPiDER β-galactosidase staining; type: cell-based, human; conditions: 500 nM; HDM 30 μg/ml
Protocol: ELVN-34 protects HNEpC from the senescence-associated secretory phenotype (SASP response). Representative images of HNEpC stained with Hoechst 33342 and spider β-galactosidase—(Panel A) untreated (Control), (Panel B) challenged with HDM (30 μg/ml), and (Panel C) HNEpC treated with HDM and ELVN-34:6 Na (500 nM). (Panel D) Quantitative assessment of increased SASP response (measured by the spider β-galactosidase staining) upon HDM exposure (30 μg/ml). ELVN-34:6 Na (500 nM) treatment reduces the number of beta-gal positive HNEpC induced by HDM. […] (*p<0.05).
Cryopreserved human nasal epithelial cells HNEpC were purchased from PromoCell GmbH, Heidelberg, Germany. (Catalog #C-1260, Lot #436Z028).
The cells used for our experiments are primary nasal epithelial cells obtained from the nasal mucosa of a person.
Cells were received in passage (P1) and were sub-culture to passage (P3), which were used for all the experiments.
HNEpC were grown to 80% confluency in Promocell's Airway epithelial cell growth medium (Catalog #C-21060) which was supplemented with airway epithelial cell growth medium supplement pack (Catalog #C-39160) and Penicillin/Streptomycin.

[2] = tested on: pro-inflammatory transcriptome and pro-homeostatic pathways in RPE single-cells; experiment: UOS transcriptome in RPE single-cells; type: cell-based; conditions: 96 per sample
Text: Dots in box plots represent expression of the gene for a single RPEC (total of 96 per sample). P<0.001 (***), P<0.01 (**), One-way Anova, with Post-Hoc Tukey HSD test for multiple comparisons.

[3] = tested on: human RPE cells; experiment: Oxidative-stress and Erastin induced cell death in human RPE cells; type: cell-based
[4] = tested on: RPE and PRC; experiment: Subretinal injection of OAβ in WT mice: fundus/OCT and ZO-1 whole flat mount of RPE; type: in vivo, C57BL/6J WT mice; conditions: OAβ-injected retina, 10 μM subretinal, 7 days; non-injected retina 105 μm
Protocol: All animal experiments were performed according to ARVO Statement for the Use of Animals in Ophthalmic and Vision Research, and the protocol was approved by LSU Health New Orleans' Institutional Animal Care and Use Committee (IACUC). 6-month-old 5×FAD mice (stock number: 34848-JAX, The Jackson Laboratory, Bar Harbor, ME, USA), co-overexpress FAD mutant forms of human amyloid precursor protein (the Swedish mutation: K670N, M671L; the Florida mutation: I716V; and the London mutation: V7171) and presenilin 1 (PS1, encoded by Psen1: M146L, L286V) transgenes under transcriptional control of the neuron-specific mouse Thy1 promoter. 5×FAD mice were hemizygotes with respect to the transgenes and non-transgenic WT littermates. Genotyping was performed by PCR of tail DNA. All analyses were carried out blind with respect to the mice genotype. For the subretinal injection, 6-month-old C57BL/6J mice were anesthetized by an intraperitoneal injection of ketamine/xylazine, pupils dilated with 1.0% tropicamide (Akorn, IL, USA); and 0.5% Proparacaine Hydrochloride (Akorn) was applied for topical anesthesia. Eyes were punctured with a 30-gauge needle between the corneoscleral junction and the ora serrata into the vitreous cavity without disturbing the lens. Compounds were delivered to the subretinal region using a 33-gauge blunt needle attached to a 5 μl Hamilton syringe (Hamilton Company, Reno, NV, USA) under a dissecting microscope. Non-injected mice were used as negative control while the PBS injected mice were used for sham. The injection volume was 2 μl containing PBS, 10 μM of OAβ, 10 μM of OAβ+200 ng ELV-N-32, 200 ng ELV-N-32 alone, 10 μM of OAβ+200 ng ELV-N-34 or 200 ng ELV-N-34 alone (n=12/group). All groups received topical drops: PBS only or ELV-N-32 (200 nM) or ELV-N-34 (200 nM), twice a day for 3 or 7 days.
For the whole mount RPE staining, eyeballs were enucleated and pre-fixed in 4% PFA for 15 min. Then the eye cup containing RPE sheet were fixed in 4% PFA for 30 min, washed in PBS 3× following the blocking step for 1 h at room temperature. The immunostaining was performed by incubating primary antibody (ZO-1) for 48 h at 4° C. Then the eye cups were washed 3× with PBS and incubated with the secondary antibody for 12 h at 4° C. The primary human RPE cells as well as mouse eye cups were embedded in ProLong™ Gold Antifade Mounting medium (Thermo Fisher Scientific) between two glass coverslips. Pictures were taken with Olympus FV1200 microscope (Olympus, Japan). Images were analyzed by software ImageJ (rsb.info.nih.gov/ij/).
7 days post-injection, mice were anesthetized with ip ketamine/xylazine, pupil dilated by topical 1.0% tropicamide and placed in a custom-built holder for OCT imaging (body temperature maintained at 38° C. with a heat pad). Retinas were imaged along the horizontal meridian through the optic nerve head using a Heidelberg Spectralis HRA OCT system (Heidelberg Engineering, Heidelberg, Germany). Axial resolution is […]. The raw OCT B-scans cross-sectional images were exported with the scale in m and opened in ImageJ (http//imagej.nih.gov/ij). The PRC layer thickness was defined as the width from the tip of the outer nuclear layer, right after the outer plexiform layer, to the outer segments of PRC. Three measurements were made on the same scan and averaged. Mean and standard error of the mean (SEM) were calculated (n=4/group). Students' T-test was used to calculate statistical significance and a P-value less than 0.05 was considered significant.

Compound: CC/C=C\C[C@H](O)\C=C/C=C/C=C/[C@H](O)C/C=C\C/C=C\CCCCCCCCCCCCCCC(=O)[O-].[Na+] [ELVN-34:6 Na, sodium (16Z,19Z,22R,23E,25E,27Z,29S,31Z)-22,29-dihydroxytetratriaconta-16,19,23,25,27,31-hexaenoate]
- number of beta-gal positive HNEpC (SASP response, spider β-galactosidase staining) [1]: reduces

Compound: CC/C=C\C[C@H](O)\C=C/C=C/C=C/[C@H](O)C/C=C\C/C=C\CCC(=O)O [NPD1, 10R,17S-dihydroxy-docosa-4Z,7Z,11E,13E,15Z,19Z-hexaenoic acid, reference compound]
- UOS up-regulation of pro-inflammatory transcriptome and down-regulation of pro-homeostatic pathways [2]: suppress these changes
- oxidative-stress and Erastin induced cell deaths [3]: counteracted

Compound: OAβ: Aβ (1-42) oligomerized for 24 h at 4° C.; cytotoxic challenge injected subretinally or added to cells [reference compound]
- PRC layer thickness (OCT) [4]: 35 μm
